Legend:
[1] = tested on: MCF-7 human breast cancer cells; experiment: Cell survivability (MTS), MCF-7; conditions: varying concentrations based on amount of drug, FIG. 17
Excerpt: (§1) Metabolism in viable cells produces “reducing equivalents,” such as, NADH or NADPH. Such reducing compounds pass electrons to an intermediate electron transfer reagent that can reduce the tetrazolium product, MTS (Promega), into an aqueous, soluble formazan product, which is colored. At death, cells rapidly lose the ability to reduce tetrazolium products. The production of the colored formazan product, therefore, is proportional to the number of viable cells in culture.
(§2) The CellTiter 96® Aqueous products (Promega) are MTS assays for determining the number of viable cells in culture. […] A single reagent added directly to the assay wells at a recommended ratio of 20 μl reagent to 100 μl of culture medium was used. Cells were incubated 1-4 hours at 37° C. and then absorbance was measured at 490 nm.
(§3) Varying concentrations of CPT-11 and the camptothecin branched polymer aggregates described above were prepared.
(§4) Two cancer cell lines were maintained in suitable medium under recognized culture conditions. MCF-7 is a human breast cancer cell line and H460 is a human epithelial lung cancer cell line. Those cell lines were exposed to varying concentrations of CPT-11 and concentrations of the camptothecin aggregates based on the amount of drug. Cell survivability was assessed as described above.

[2] = tested on: H460 human epithelial lung cancer cells; experiment: Cell survivability (MTS), H460; conditions: varying concentrations based on amount of drug, FIG. 18
Excerpt: as §1, §2, §3, §4

Q: With `CCc1c2c(nc3ccc(OC(=O)N4CCC(N5CCCCC5)CC4)cc13)-c1cc3c(c(=O)n1C2)COC(=O)[C@]3(O)CC` [CPT-11, Irinotecan] as the molecule, how does the cytotoxicity [1] read?
A: increased with increasing drug concentration

Q: What about the cytotoxicity [2] of the same molecule?
A: dose response curve of cytotoxicity

Reference: patent publication US12042561B2, “Hydrophobic molecule-induced branched polymer aggregates and their use” (ANP Technologies, Inc., priority 2011, dated 2024)
